# Measured values: patent USRE46630E1, “Substituted 4-pyridones and their use as inhibitors of neutrophil elastase activity” (Boehringer Ingelheim International GmbH, priority 2012, dated 2017)
# Molecular target: T1, Human neutrophil elastase (Homo sapiens, UniProt P08246)
# T1 construct: purchased Calbiochem 324681
# T1 sequence (P08246 30-267): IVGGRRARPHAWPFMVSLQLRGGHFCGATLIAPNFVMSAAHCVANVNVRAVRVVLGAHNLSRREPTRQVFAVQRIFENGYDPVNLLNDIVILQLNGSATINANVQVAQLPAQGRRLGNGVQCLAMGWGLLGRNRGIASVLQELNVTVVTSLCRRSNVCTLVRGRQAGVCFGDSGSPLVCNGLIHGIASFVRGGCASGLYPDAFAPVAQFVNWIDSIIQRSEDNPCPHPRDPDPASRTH
# Experiment: Human Neutrophil Elastase Assay
# Format: biochemical
# Settings: Neutrophil Elastase assay; substrate MeOSuc-Ala-Ala-Pro-Val-AMC 250 μM; 15 min preincubation, 60 min incubation at room temperature; pH 7.5
# Method in brief: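 Run in 100 mM Tris, 500 mM NaCl, pH 7.5 with 0.01% BSA, with compounds prediluted in DMSO then buffer (5% DMSO final). Fluorescence was read at 380 nm excitation/460 nm emission after enzyme inactivation. Values were normalised to inactivated-enzyme (0%) and uninhibited-enzyme (100%) controls.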
row,SMILES,IC50
1,Cc1c(-c2ccnc(C(F)(F)F)c2)c(=O)c(C(=O)NCCCN(C)C)cn1C(C)c1ccc(C#N)cc1 (centres unmarked) [Example 9.11],18.3 nM
2,Cc1c(-c2ccnc(C(F)(F)F)c2)c(=O)c(C(=O)NCC2CCC2)cn1C(C)c1ccc(C#N)cc1 (centres unmarked) [Example 9.23],14.4 nM
3,Cc1c(-c2ccnc(C(F)(F)F)c2)c(=O)c(C(=O)NC2CCOCC2)cn1C(C)c1ccc(C#N)cc1 (centres unmarked) [Example 9.25],11.4 nM
4,Cc1c(-c2ccnc(C(F)(F)F)c2)c(=O)c(C(=O)NCC2CCCO2)cn1C(C)c1ccc(C#N)cc1 (centres unmarked) [Example 9.26],12.1 nM
5,Cc1c(-c2ccnc(C(F)(F)F)c2)c(=O)c(C(=O)NCC2CCO2)cn1C(C)c1ccc(C#N)cc1 (centres unmarked) [Example 9.27],13.7 nM
6,Cc1c(-c2ccnc(C(F)(F)F)c2)c(=O)c(C(=O)NCC2CCOCC2)cn1C(C)c1ccc(C#N)cc1 (centres unmarked) [Example 9.28],12.8 nM
7,Cc1c(-c2ccnc(C(F)(F)F)c2)c(=O)c(C(=O)NC2CCCCC2O)cn1C(C)c1ccc(C#N)cc1 (centres unmarked) [Example 9.29],22.3 nM
8,Cc1c(-c2ccnc(C(F)(F)F)c2)c(=O)c(C(=O)NCC2CC3CCC2O3)cn1C(C)c1ccc(C#N)cc1 (centres unmarked) [Example 9.30],16.3 nM
9,Cc1c(-c2ccnc(C(F)(F)F)c2)c(=O)c(C(=O)NCC(=O)OC(C)C)cn1C(C)c1ccc(C#N)cc1 (centres unmarked) [Example 9.31],18.7 nM
10,Cc1c(-c2ccnc(C(F)(F)F)c2)c(=O)c(C(=O)NCC2CCCO2)cn1C(C)c1ccc(C#N)cc1 (centres unmarked) [Example 9.32],19.4 nM
11,COC(=O)C(C)NC(=O)c1cn(C(C)c2ccc(C#N)cc2)c(C)c(-c2ccnc(C(F)(F)F)c2)c1=O (centres unmarked) [Example 9.33],23.1 nM
12,Cc1c(-c2ccnc(C(F)(F)F)c2)c(=O)c(C(=O)NC2CCOC2)cn1C(C)c1ccc(C#N)cc1 (centres unmarked) [Example 9.34],23.5 nM
13,Cc1c(-c2ccnc(C(F)(F)F)c2)c(=O)c(C(=O)NC2CCCC2O)cn1C(C)c1ccc(C#N)cc1 (centres unmarked) [Example 9.35],26.2 nM
14,Cc1c(-c2ccnc(C(F)(F)F)c2)c(=O)c(C(=O)NC2CCCC2O)cn1C(C)c1ccc(C#N)cc1 (centres unmarked) [Example 9.36],33.9 nM
15,Cc1c(-c2ccnc(C(F)(F)F)c2)c(=O)c(C(=O)NCC2CCCCO2)cn1C(C)c1ccc(C#N)cc1 (centres unmarked) [Example 9.37],32.9 nM
16,Cc1c(-c2ccnc(C(F)(F)F)c2)c(=O)c(C(=O)NCC2(C)COC2)cn1C(C)c1ccc(C#N)cc1 (centres unmarked) [Example 9.38],33.3 nM
17,Cc1c(-c2ccnc(C(F)(F)F)c2)c(=O)c(C(=O)NC2CC3CCC2O3)cn1C(C)c1ccc(C#N)cc1 (centres unmarked) [Example 9.39],58.3 nM
18,Cc1c(-c2ccnc(C(F)(F)F)c2)c(=O)c(C(=O)NC2COCC2O)cn1C(C)c1ccc(C#N)cc1 (centres unmarked) [Example 9.40],69.4 nM
19,Cc1c(-c2ccnc(C(F)(F)F)c2)c(=O)c(C(=O)NC2CCCC2O)cn1C(C)c1ccc(C#N)cc1 (centres unmarked) [Example 9.41],100 nM
20,Cc1c(-c2ccnc(C(F)(F)F)c2)c(=O)c(C(=O)NC2COCC2O)cn1C(C)c1ccc(C#N)cc1 (centres unmarked) [Example 9.42],29.9 nM
21,Cc1c(-c2ccnc(C(F)(F)F)c2)c(=O)c(C(=O)NCC(F)(F)F)cn1C(C)c1ccc(C#N)cc1 (centres unmarked) [Example 9.43],11.5 nM
22,Cc1c(-c2ccnc(C(F)(F)F)c2)c(=O)c(C(=O)NC(C)(C)C#N)cn1C(C)c1ccc(C#N)cc1 (centres unmarked) [Example 9.46],94 nM
23,Cc1c(-c2ccnc(C(F)(F)F)c2)c(=O)c(C(=O)NCC2CC(O)C2)cn1C(C)c1ccc(C#N)cc1 (centres unmarked) [Example 9.47],14.9 nM
24,Cc1c(-c2ccnc(C(F)(F)F)c2)c(=O)c(C(=O)NCC2CC(O)C2)cn1C(C)c1ccc(C#N)cc1 (centres unmarked) [Example 9.48],17.3 nM
25,COCC(C)(C#N)NC(=O)c1cn(C(C)c2ccc(C#N)cc2)c(C)c(-c2ccnc(C(F)(F)F)c2)c1=O (centres unmarked) [Example 9.49],150 nM
26,Cc1c(-c2ccnc(C(F)(F)F)c2)c(=O)c(C(=O)NCC(C)(C)C)cn1C(C)c1ccc(C#N)cc1 (centres unmarked) [Example 9.52],420 nM
27,Cc1c(-c2ccnc(C(F)(F)F)c2)c(=O)c(C(=O)NCC(C)C)cn1C(C)c1ccc(C#N)cc1 (centres unmarked) [Example 9.53],23 nM

# Compounds with a lower IC50, results first:
row,IC50,SMILES
1,10.9 nM,Cc1c(-c2ccnc(C(F)(F)F)c2)c(=O)c(C(=O)NCC2CC2)cn1C(C)c1ccc(C#N)cc1 (centres unmarked) [Example 9.20]
2,10.1 nM,Cc1c(-c2ccnc(C(F)(F)F)c2)c(=O)c(C(=O)NC2COC2)cn1C(C)c1ccc(C#N)cc1 (centres unmarked) [Example 9.17]
3,9.8 nM,Cc1c(-c2ccnc(C(F)(F)F)c2)c(=O)c(C(=O)NCC2CC3CCC2O3)cn1C(C)c1ccc(C#N)cc1 (centres unmarked) [Example 9.24]
4,9.8 nM,Cc1c(-c2ccnc(C(F)(F)F)c2)c(=O)c(C(=O)NCCF)cn1C(C)c1ccc(C#N)cc1 (centres unmarked) [Example 9.44]
5,9.5 nM,Cc1c(-c2ccnc(C(F)(F)F)c2)c(=O)c(C(=O)NCC2CCOC2)cn1C(C)c1ccc(C#N)cc1 (centres unmarked) [Example 9.21]
6,8.9 nM,Cc1c(-c2ccnc(C(F)(F)F)c2)c(=O)c(C(=O)NCc2cnn(C)c2)cn1C(C)c1ccc(C#N)cc1 (centres unmarked) [Example 9.19]
7,8.6 nM,Cc1c(-c2ccnc(C(F)(F)F)c2)c(=O)c(C(=O)NCC(C)O)cn1C(C)c1ccc(C#N)cc1 (centres unmarked) [Example 9.61]
8,7.5 nM,Cc1c(-c2ccnc(C(F)(F)F)c2)c(=O)c(C(=O)NCC(N)=O)cn1C(C)c1ccc(C#N)cc1 (centres unmarked) [Example 9.18]
9,7.5 nM,COCCCNC(=O)c1cn(C(C)c2ccc(C#N)cc2)c(C)c(-c2ccnc(C(F)(F)F)c2)c1=O (centres unmarked) [Example 9.59]
10,7.3 nM,Cc1c(-c2ccnc(C(F)(F)F)c2)c(=O)c(C(=O)NCC(F)F)cn1C(C)c1ccc(C#N)cc1 (centres unmarked) [Example 9.22]
11,7 nM,CCCNC(=O)c1cn(C(C)c2ccc(C#N)cc2)c(C)c(-c2ccnc(C(F)(F)F)c2)c1=O (centres unmarked) [Example 9.14]
12,6.7 nM,Cc1c(-c2ccnc(C(F)(F)F)c2)c(=O)c(C(=O)NCc2ccnn2C)cn1C(C)c1ccc(C#N)cc1 (centres unmarked) [Example 9.16]
13,6.1 nM,CCNC(=O)c1cn(C(C)c2ccc(C#N)cc2)c(C)c(-c2ccnc(C(F)(F)F)c2)c1=O (centres unmarked) [Example 9.56]
14,6 nM,C=CCNC(=O)c1cn(C(C)c2ccc(C#N)cc2)c(C)c(-c2ccnc(C(F)(F)F)c2)c1=O (centres unmarked) [Example 9.51]
15,5.7 nM,Cc1c(-c2ccnc(C(F)(F)F)c2)c(=O)c(C(=O)NCC2COC2)cn1C(C)c1ccc(C#N)cc1 (centres unmarked) [Example 9.15]
16,5.7 nM,Cc1c(-c2ccnc(C(F)(F)F)c2)c(=O)c(C(=O)NCCC(C)O)cn1C(C)c1ccc(C#N)cc1 (centres unmarked) [Example 9.60]
17,5.4 nM,CCOCCNC(=O)c1cn(C(C)c2ccc(C#N)cc2)c(C)c(-c2ccnc(C(F)(F)F)c2)c1=O (centres unmarked) [Example 9.58]
18,5.3 nM,Cc1c(-c2ccnc(C(F)(F)F)c2)c(=O)c(C(=O)NC2(C#N)CC2)cn1C(C)c1ccc(C#N)cc1 (centres unmarked) [Example 9.45]
19,5.2 nM,COCCNC(=O)c1cn(C(C)c2ccc(C#N)cc2)c(C)c(-c2ccnc(C(F)(F)F)c2)c1=O (centres unmarked) [Example 9.57]
20,4.6 nM,Cc1c(-c2ccnc(C(F)(F)F)c2)c(=O)c(C(=O)NC2CCN(C)C2=O)cn1C(C)c1ccc(C#N)cc1 (centres unmarked) [Example 9.12]
21,4.6 nM,Cc1c(-c2ccnc(C(F)(F)F)c2)c(=O)c(C(=O)NC(C)C#N)cn1C(C)c1ccc(C#N)cc1 (centres unmarked) [Example 9.50]
22,4.1 nM,Cc1c(-c2ccnc(C(F)(F)F)c2)c(=O)c(C(=O)NCCC#N)cn1C(C)c1ccc(C#N)cc1 (centres unmarked) [Example 9.54]
23,1.7 nM,Cc1c(-c2ccnc(C(F)(F)F)c2)c(=O)c(C(=O)NCC#N)cn1C(C)c1ccc(C#N)cc1 (centres unmarked) [Example 9.13]
